Assay results as given in ChEMBL document CHEMBL4602732, “Optimizing Pyrazolopyrimidine Inhibitors of Calcium Dependent Protein Kinase 1 for Treatment of Acute and Chronic Toxoplasmosis” (J Med Chem, 2020).

How the values were obtained:
[1] = Cytotoxicity against human SH-SY5Y cells assessed as cell growth at 20 uM measured after 72 hrs by cellTiter 96 AQueous non-radioactive cell proliferation assay relative to control; assay type: cell-based; settings: read-out: Activity
[2] = Cytotoxicity against HFF monolayers assessed as cell growth measured after 72 hrs by luciferase reporter gene assay relative to control; assay type: cell-based; settings: human, read-out: Activity
[3] = Cytotoxicity against human CMEC/D3 cells assessed as cell growth at 20 uM measured after 72 hrs by cellTiter 96 AQueous non-radioactive cell proliferation assay relative to control; assay type: cell-based, hCMEC/D3; settings: read-out: Activity
[4] = Half life in mouse liver microsomes at 10 uM preincubated for 10 mins followed by NADPH addition by LC-MS/MS analysis; assay type: ADME, Microsome; settings: microsomes, 10 µM
[5] = Half life in human liver microsomes at 10 uM preincubated for 10 mins followed by NADPH addition by LC-MS/MS analysis; assay type: ADME, Microsome; settings: for t1/2: microsomes, 10 µM; for half-life at 10 µM: liver microsomes
[6] = test system: Toxoplasma gondii; assay: Antiparasitic activity against 2F clone of type 1 Toxoplasma gondii RH tachyzoites expressing beta-galactosidase infected in HFF assessed as reduction in parasite growth measured after 72 hrs by chlorophenol Red-beta-D-galactopyranoside substrate based assay; assay type: functional, organism-based
[7] = Inhibition of Toxoplasma gondii full-length wild-type C-terminal His-tagged CDPK1 expressed in Escherichia coli BL21(DE3)V2RpAcYc-LIC+LamP using syntide-2 peptide as substrate incubated for 20 to 40 mins by ELISA
[8] = Cytotoxicity against MDCK cells assessed as cell growth at 20 uM measured after 72 hrs by cellTiter 96 AQueous non-radioactive cell proliferation assay relative to control; assay type: cell-based, Canis lupus familiaris; settings: dog, read-out: Activity
[9] = AUC in CD1 mouse at 3 mg/kg, iv or 10 mg/kg, po administered via gavage by LC-MS/MS analysis; assay type: ADME, organism-based; settings: in vivo
[10] = biological target: Voltage-gated inwardly rectifying potassium channel KCNH2 (Homo sapiens, UniProt Q12809); assay: Inhibition of human ERG expressed in CHOK1 cells by patch-clamp electrophysiology assay; assay type: cell-based, CHO-K1
[11] = Cmax in CD1 mouse at 3 mg/kg, iv or 10 mg/kg, po administered via gavage by LC-MS/MS analysis; assay type: ADME, organism-based; settings: in vivo
[12] = Ratio of drug level in central nervous system to plasma in CD1 mouse at 10 mg/kg, po administered via gavage measured after 8 hrs by LC-MS/MS analysis; assay type: ADME, organism-based, CNS/Plasma; settings: central nervous system and plasma
[13] = Oral bioavailability in CD1 mouse at 10 mg/kg administered via gavage by LC-MS/MS analysis; assay type: ADME, organism-based; settings: in vivo
[14] = Protein binding in mouse plasma assessed as unbound fraction at 2 uM measured after 4 hrs by LC-MS/MS analysis; assay type: ADME, cell-free
[15] = Half life in CD1 mouse at 3 mg/kg, iv or 10 mg/kg, po administered via gavage by LC-MS/MS analysis; assay type: ADME, organism-based; settings: in vivo
[16] = test system: MDR1; assay: Efflux ratio of apparent permeability across basolateral to apical side over apical to basolateral side in MDCK2-MDR1 cells at 2 uM measured after 150 mins by LC-MS/MS analysis; assay type: ADME, cell-based, Canis lupus familiaris; settings: dog, MDCK-MDR1
[17] = biological target: T1, Aldehyde oxidase (Homo sapiens, UniProt Q06278); assay: Drug metabolism in human liver S9 fraction assessed as aldehyde oxidase-mediated drug metabolism by measuring rate of parent compound decay at 1 uM measured after 90 mins by LC-MS/MS analysis; assay type: ADME, subcellular
T1 sequence (Q06278 whole entry): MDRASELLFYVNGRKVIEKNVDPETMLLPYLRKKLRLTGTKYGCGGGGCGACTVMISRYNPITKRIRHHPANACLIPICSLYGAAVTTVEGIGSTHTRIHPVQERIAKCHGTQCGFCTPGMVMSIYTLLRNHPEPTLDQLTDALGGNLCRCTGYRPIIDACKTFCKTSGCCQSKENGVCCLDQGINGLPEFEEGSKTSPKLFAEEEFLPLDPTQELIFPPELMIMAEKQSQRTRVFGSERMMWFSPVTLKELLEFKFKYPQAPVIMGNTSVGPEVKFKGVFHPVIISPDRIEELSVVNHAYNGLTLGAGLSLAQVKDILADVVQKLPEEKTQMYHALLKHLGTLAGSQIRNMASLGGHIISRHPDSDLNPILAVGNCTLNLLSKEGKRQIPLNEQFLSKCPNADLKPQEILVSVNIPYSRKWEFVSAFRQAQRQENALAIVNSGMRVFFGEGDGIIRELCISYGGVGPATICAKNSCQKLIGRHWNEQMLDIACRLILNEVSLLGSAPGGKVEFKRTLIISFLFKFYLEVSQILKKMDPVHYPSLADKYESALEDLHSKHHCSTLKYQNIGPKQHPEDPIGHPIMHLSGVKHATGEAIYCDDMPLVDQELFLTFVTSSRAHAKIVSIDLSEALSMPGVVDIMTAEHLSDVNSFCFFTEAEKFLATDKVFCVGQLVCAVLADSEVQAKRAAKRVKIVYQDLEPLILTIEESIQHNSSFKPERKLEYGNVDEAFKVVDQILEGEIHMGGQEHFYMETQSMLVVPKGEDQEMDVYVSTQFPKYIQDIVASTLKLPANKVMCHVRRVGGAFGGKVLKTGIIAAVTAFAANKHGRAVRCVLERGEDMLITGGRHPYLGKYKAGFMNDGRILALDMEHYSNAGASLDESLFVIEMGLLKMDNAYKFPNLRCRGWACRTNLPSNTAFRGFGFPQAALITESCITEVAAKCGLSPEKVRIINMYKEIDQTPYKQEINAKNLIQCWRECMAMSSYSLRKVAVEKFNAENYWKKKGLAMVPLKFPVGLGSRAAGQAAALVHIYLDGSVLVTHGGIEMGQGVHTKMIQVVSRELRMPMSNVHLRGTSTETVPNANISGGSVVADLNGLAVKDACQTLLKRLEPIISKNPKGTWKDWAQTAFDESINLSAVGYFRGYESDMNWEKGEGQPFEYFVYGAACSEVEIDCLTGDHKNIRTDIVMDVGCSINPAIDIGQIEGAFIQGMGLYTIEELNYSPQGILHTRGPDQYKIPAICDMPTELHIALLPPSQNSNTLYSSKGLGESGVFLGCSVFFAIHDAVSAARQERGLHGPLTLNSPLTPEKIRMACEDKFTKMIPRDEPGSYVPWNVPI

[18] = Intrinsic clearance in human liver microsomes at 10 uM preincubated for 10 mins followed by NADPH addition by LC-MS/MS analysis; assay type: ADME, Microsome; settings: read-out: CLH
[19] = Protein binding in mouse brain assessed as unbound fraction; assay type: ADME, tissue-based
[20] = Cytotoxicity against human Caco2 cells assessed as cell growth at 20 uM measured after 72 hrs by cellTiter 96 AQueous non-radioactive cell proliferation assay relative to control; assay type: cell-based, Caco-2; settings: read-out: Activity
[21] = biological target: LCK (Homo sapiens, UniProt P06239); assay: Inhibition of wild-type human partial length LCK (R207 to P509 residues) expressed in bacterial expression system at 10 uM by Kinomescan method relative to control
[22] = Apparent permeability across apical to basolateral side in MDCK2-MDR1 cells at 2 uM measured after 150 mins by LC-MS/MS analysis; assay type: ADME, cell-based, Canis lupus familiaris; settings: dog, mdck-mdr1, […]
[23] = test system: Toxoplasma gondii; assay: Antiparasitic activity against Toxoplasma gondii type III CTG tachyzoites infected in HFF assessed as reduction in parasite growth; assay type: functional, organism-based
[24] = Clearance in human hepatocytes assessed per million cells at 1 uM by LC-MS/MS analysis; assay type: ADME, cell-based, Hepatocyte
[25] = test system: Toxoplasma gondii; assay: Antiparasitic activity against type 2 Toxoplasma gondii ME49 tachyzoites infected in HFF assessed as reduction in parasite growth; assay type: functional, organism-based
[26] = test system: Src (human) versus Toxoplasma gondii CDPK1; assay: Selectivity ratio of IC50 for inhibition of human Src expressed in Escherichia coli BL21 to IC50 for inhibition of Toxoplasma gondii full-length wild-type C-terminal His-tagged CDPK1 expressed in Escherichia coli BL21(DE3)V2RpAcYc-LIC+LamP; assay type: toxicity; settings: read-out: Ratio IC50
[27] = Cytotoxicity against human HepG2 cells assessed as cell growth at 20 uM measured after 72 hrs by cellTiter 96 AQueous non-radioactive cell proliferation assay relative to control; assay type: cell-based; settings: read-out: Activity
[28] = Inhibition of Toxoplasma gondii full-length C-terminal His-tagged CDPK1 G128M mutant expressed in Escherichia coli BL21(DE3)V2RpAcYc-LIC+LamP using syntide-2 peptide as substrate incubated for 20 to 40 mins by ELISA
[29] = Kinetic solubility of the compound in pH 7.4 phosphate buffer measured after 24 hrs by UV-HPLC analysis; assay type: physicochemical; settings: pH 7.4, 24 h
[30] = biological target: Proto-oncogene tyrosine-protein kinase Src (Homo sapiens, UniProt P12931); assay: Inhibition of human Src expressed in Escherichia coli BL21 using Abltide peptide as substrate incubated for 20 to 40 mins by ELISA
Sequence of Proto-oncogene tyrosine-protein kinase Src (P12931 2-536 limits assumed): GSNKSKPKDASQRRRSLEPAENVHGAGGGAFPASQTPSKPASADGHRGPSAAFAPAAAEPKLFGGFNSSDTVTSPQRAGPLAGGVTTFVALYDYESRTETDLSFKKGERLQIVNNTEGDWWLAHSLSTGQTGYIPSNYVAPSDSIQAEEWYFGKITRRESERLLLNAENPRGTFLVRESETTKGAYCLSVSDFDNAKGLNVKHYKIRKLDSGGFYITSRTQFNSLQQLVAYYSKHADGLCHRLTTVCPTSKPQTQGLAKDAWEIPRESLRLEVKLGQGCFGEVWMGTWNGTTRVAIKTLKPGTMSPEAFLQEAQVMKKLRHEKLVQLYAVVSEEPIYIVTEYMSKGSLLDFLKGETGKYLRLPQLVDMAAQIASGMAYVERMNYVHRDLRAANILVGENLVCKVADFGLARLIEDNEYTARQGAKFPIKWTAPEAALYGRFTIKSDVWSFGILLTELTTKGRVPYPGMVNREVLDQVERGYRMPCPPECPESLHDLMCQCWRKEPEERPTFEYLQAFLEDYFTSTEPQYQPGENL

Sequence of LCK (P06239 whole entry, the tested form may be a part): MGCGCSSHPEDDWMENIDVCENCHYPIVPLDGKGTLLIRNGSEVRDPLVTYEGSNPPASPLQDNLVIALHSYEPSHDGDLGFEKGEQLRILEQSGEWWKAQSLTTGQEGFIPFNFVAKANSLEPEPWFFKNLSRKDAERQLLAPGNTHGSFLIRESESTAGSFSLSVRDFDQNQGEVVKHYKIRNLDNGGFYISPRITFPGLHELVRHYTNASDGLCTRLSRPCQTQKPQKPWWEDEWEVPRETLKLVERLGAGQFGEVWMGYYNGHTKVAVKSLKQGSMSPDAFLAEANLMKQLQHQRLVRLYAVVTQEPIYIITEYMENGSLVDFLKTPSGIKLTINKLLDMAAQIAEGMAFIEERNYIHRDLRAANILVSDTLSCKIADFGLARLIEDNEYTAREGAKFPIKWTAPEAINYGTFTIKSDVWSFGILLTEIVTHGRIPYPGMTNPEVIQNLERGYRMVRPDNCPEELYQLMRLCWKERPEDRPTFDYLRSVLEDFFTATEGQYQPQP
Sequence of Voltage-gated inwardly rectifying potassium channel KCNH2 (Q12809 whole entry): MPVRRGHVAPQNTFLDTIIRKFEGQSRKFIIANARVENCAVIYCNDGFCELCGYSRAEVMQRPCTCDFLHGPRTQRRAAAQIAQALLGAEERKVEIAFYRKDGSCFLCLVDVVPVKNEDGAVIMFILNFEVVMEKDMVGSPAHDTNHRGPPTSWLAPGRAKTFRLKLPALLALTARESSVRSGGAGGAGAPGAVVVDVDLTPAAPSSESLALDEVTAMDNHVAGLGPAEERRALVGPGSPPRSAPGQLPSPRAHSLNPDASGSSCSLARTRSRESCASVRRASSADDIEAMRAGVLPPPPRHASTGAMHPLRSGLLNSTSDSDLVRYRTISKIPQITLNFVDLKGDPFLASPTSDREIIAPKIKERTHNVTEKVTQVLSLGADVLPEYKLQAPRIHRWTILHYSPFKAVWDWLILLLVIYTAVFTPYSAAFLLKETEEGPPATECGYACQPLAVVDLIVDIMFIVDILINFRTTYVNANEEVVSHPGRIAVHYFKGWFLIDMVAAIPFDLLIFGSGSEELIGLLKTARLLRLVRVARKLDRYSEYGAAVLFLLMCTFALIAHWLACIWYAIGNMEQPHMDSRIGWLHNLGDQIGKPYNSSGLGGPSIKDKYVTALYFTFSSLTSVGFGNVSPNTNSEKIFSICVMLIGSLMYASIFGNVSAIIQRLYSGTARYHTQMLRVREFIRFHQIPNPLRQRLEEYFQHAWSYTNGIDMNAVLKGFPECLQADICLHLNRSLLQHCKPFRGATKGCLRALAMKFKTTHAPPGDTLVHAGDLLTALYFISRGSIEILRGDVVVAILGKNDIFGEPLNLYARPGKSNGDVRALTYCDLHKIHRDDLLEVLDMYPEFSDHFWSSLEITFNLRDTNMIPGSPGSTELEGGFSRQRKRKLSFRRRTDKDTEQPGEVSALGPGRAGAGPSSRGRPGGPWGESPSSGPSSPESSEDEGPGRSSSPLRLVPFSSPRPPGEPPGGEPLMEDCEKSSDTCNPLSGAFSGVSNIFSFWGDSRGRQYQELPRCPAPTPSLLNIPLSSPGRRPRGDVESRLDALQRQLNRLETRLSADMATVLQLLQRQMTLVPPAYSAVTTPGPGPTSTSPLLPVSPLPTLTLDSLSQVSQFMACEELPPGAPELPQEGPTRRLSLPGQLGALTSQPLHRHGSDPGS

CO[C@@]12[C@H](COC(N)=O)C3=C(C(=O)C(C)=C(N)C3=O)N1C[C@@H]1N[C@@H]12 [MITOMYCIN]
viability at 72 h, 20 µM [1]: 0%
viability at 72 h [2]: 25.8%
viability at 72 h, 20 µM [3]: 5%

CC(C)(C)n1nc(Oc2cc(O)ccn2)c2c(N)ncnc21
t1/2 [4]: 0.617 h
t1/2 [5]: 1.4 h
EC50 [6]: 17 nM
IC50 [7]: 14 nM

Nc1ncnc2c1c(Oc1cccc(Cl)c1)nn2[C@H]1C[C@H](F)C1
t1/2 [4]: 0.065 h
t1/2 [5]: 0.153 h
EC50 [6]: 498 nM
IC50 [7]: 25 nM

CC(C)(C)n1nc(Oc2cc(C#N)ccn2)c2c(N)ncnc21
t1/2 [4]: 0.767 h
half-life at 10 µM [5]: > 2.42 h
EC50 [6]: 112 nM
IC50 [7]: 18 nM

Nc1ncnc2c1c(Oc1cc(C(F)(F)F)ccn1)nn2[C@@H]1CCCC[C@H]1O
viability at 72 h, 20 µM [8]: 77.3%
AUC [9]: 1100 ng·h/mL
IC50 [10]: > 30000 nM
Cmax [11]: 620 ng/mL
Kp at 8 h [12]: 0.47
viability at 72 h, 20 µM [1]: 105%
bioavailability [13]: 48.9%
Fu [14]: 24.3%
t1/2 [15]: 2.17 h
efflux ratio at […], 2 µM [16]: 1.23
Drug metabolism [17]: < 3.2 µL/min/mg
CLint scaled at 10 µM [18]: < 8.6 mL/min/kg
fraction unbound [19]: 0.041
viability at 72 h, 20 µM [20]: 100%
inhibition at 10 µM [21]: 45%
Papp [22]: 21.43 ×10⁻⁶ cm/s
t1/2 [4]: 1.1 h
EC50 [23]: 227 nM
half-life at 10 µM [5]: > 2.42 h
EC50 [6]: 77 to 77.5 nM
CLH [24]: < 6.4 µL/min/1e6 cells
EC50 [25]: 89.6 nM
selectivity ratio [26]: > 1000
viability at 72 h, 20 µM [27]: 99%
IC50 [28]: > 20000 nM
viability at 72 h [2]: 107%
Kinetic_solubility [29]: 92.73 µM
IC50 [30]: > 20000 nM
IC50 [7]: 6.6 nM
viability at 72 h, 20 µM [3]: 126%

Nc1ncnc2c1c(Oc1cccc(C(F)(F)F)c1)nn2[C@H]1C[C@H](O)C1
t1/2 [4]: 0.367 h
t1/2 [5]: 1.25 h
EC50 [6]: 482 nM
IC50 [7]: 48 nM

Nc1ncnc2c1c(Oc1cc(C(F)(F)F)ccn1)nn2C1CCC(F)(F)CC1
t1/2 [4]: 0.433 h
half-life at 10 µM [5]: > 2.42 h
EC50 [6]: 142 nM
IC50 [7]: 34 nM

Nc1ncnc2c1c(Oc1cc(C(F)(F)F)ccn1)nn2[C@H]1CC[C@H](CO)CC1
t1/2 [4]: 0.383 h
half-life at 10 µM [5]: > 2.42 h
EC50 [6]: 25 nM
IC50 [7]: 10 nM

Nc1ncnc2c1c(Oc1cc(C(F)(F)F)ccn1)nn2[C@@H]1CC[C@H](N)C1
t1/2 [4]: 1.4 h
half-life at 10 µM [5]: > 2.42 h
EC50 [6]: 134 nM
IC50 [7]: 42 nM

CN(C)C1CCC(n2nc(Oc3cc(C(F)(F)F)ccn3)c3c(N)ncnc32)CC1 (centres undefined)
t1/2 [4]: 0.283 h
half-life at 10 µM [5]: > 2.42 h
EC50 [6]: 40 nM
IC50 [7]: 28 nM

Nc1ncnc2c1c(Oc1cc(C(F)(F)F)ccn1)nn2[C@H]1CC[C@@H](O)CC1
t1/2 [4]: 0.45 h
half-life at 10 µM [5]: > 2.42 h
EC50 [6]: 38 nM
IC50 [7]: 19 nM
